Measurements published in PubChem BioAssay AID256 (DTP/NCI, 2004).
Inconclusive results and toxic doses are left out. How the source made its calls: active means survival T/C of 150% or more; inactive means T/C below 125% in these data.

System: CD2F1 mice, L1210 leukemia ip, survival T/C
Test: NCI In Vivo Anticancer Drug Screen. Data for tumor model L1210 Leukemia (intraperitoneal) in CD2F1 (CDF1) mice
Details: endpoint: mean survival time, higher = longer survival
Summary of the method: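 Transplantable tumor in mice; compound-treated vs vehicle-treated groups. Read-out = treated/control ratio of the measured endpoint.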

[1] = dose: 100.0 mg/kg/injection, schedule: Q01DX009 (ip), vehicle: saline with Tween-80
[2] = dose: 100.0 mg/kg/injection, schedule: Q04DX003 (ip), vehicle: saline with Tween-80
[3] = dose: 200.0 mg/kg/injection, schedule: Q01DX009 (ip), vehicle: saline with Tween-80
[4] = dose: 200.0 mg/kg/injection, schedule: Q04DX003 (ip), vehicle: saline with Tween-80
[5] = dose: 400.0 mg/kg/injection, schedule: Q01DX009 (ip), vehicle: saline with Tween-80
[6] = dose: 400.0 mg/kg/injection, schedule: Q04DX003 (ip), vehicle: saline with Tween-80
[7] = dose: 100.0 mg/kg/injection, schedule: Q01DX001 (ip), vehicle: saline with Tween-80
[8] = dose: 200.0 mg/kg/injection, schedule: Q01DX001 (ip), vehicle: saline with Tween-80
[9] = dose: 400.0 mg/kg/injection, schedule: Q01DX001 (ip), vehicle: saline with Tween-80
[10] = dose: 100.0 mg/kg/injection, schedule: Q04DX002 (ip), vehicle: saline with Tween-80
[11] = dose: 200.0 mg/kg/injection, schedule: Q04DX002 (ip), vehicle: saline with Tween-80
[12] = dose: 100.0 mg/kg/injection, schedule: Q04DX003 (ip), vehicle: saline

Measured: T/C

CC(=O)[CH-]C(=O)C(=O)[CH-]C(C)=O.[Cu+2]
inactive: dose: 20.0 mg/kg/injection, schedule: Q01DX001 (ip), vehicle: saline with Tween-80 96 % of control | dose: 40.0 mg/kg/injection, schedule: Q01DX001 (ip), vehicle: saline with Tween-80 96 % of control | dose: 80.0 mg/kg/injection, schedule: Q01DX001 (ip), vehicle: saline with Tween-80 94 % of control

O=C(CCBr)NCc1ccccc1
inactive: [1] 97 % of control | [2] 92 % of control | [3] 98 % of control | [4] 98 % of control | [5] 97 % of control | [6] 95 % of control

S=C(Nc1ccccn1)NC1CC2C=CC1C2 (configuration not stated)
inactive: [7] 93 % of control | [8] 101 % of control | [9] 108 % of control

Cn1c(N)c(C2OC(=O)c3ccccc32)c(=O)n(C)c1=O (configuration not stated)
inactive: dose: 100.0 mg/kg/injection, schedule: Q04DX002 (ip), vehicle: Klucel (hydroxypropylcellulose) (HPC) 98 % of control | dose: 200.0 mg/kg/injection, schedule: Q04DX002 (ip), vehicle: Klucel (hydroxypropylcellulose) (HPC) 98 % of control

CC(C)=N/N=C(N)/C(N)=N/N=C(C)C
inactive: [10] 103 % of control | [11] 106 % of control | dose: 400.0 mg/kg/injection, schedule: Q04DX002 (ip), vehicle: saline with Tween-80 95 % of control

Cc1ccc(OS(=O)(=O)c2ccc(C)cc2)cc1
inactive: [1] 97 % of control | [2] 96 % of control | [3] 100 % of control | [4] 93 % of control | [5] 96 % of control | [6] 98 % of control

C=C1C(=O)O[C@@H]2[C@H]1[C@@H](OC(C)=O)C[C@H](C)[C@@H]1CCC(=O)[C@@]21C
inactive: [1] 93 % of control | [3] 89 % of control | [5] 92 % of control

COc1ccc(Br)cc1C1OC(=O)c2c(OC)c(OC)cc([N+](=O)[O-])c21 (configuration not stated)
inactive: [2] 92 % of control | [4] 93 % of control

Cc1ccc(S(=O)(=O)/C=C(\Cl)S(=O)(=O)C(C)(C)C)cc1
inactive: dose: 25.0 mg/kg/injection, schedule: Q01DX001 (ip), vehicle: saline with Tween-80 93 % of control | dose: 50.0 mg/kg/injection, schedule: Q01DX001 (ip), vehicle: saline with Tween-80 104 % of control

C1CCC(C2CCCC[N-]2)[N-]C1.C1CCC(C2CCCC[N-]2)[N-]C1.O=N[O-].O=N[O-].[Ru+4] (configuration not stated)
inactive: dose: 3.13 mg/kg/injection, schedule: Q04DX003 (ip), vehicle: distilled water + Tween-80 90 % of control | dose: 6.25 mg/kg/injection, schedule: Q04DX003 (ip), vehicle: distilled water + Tween-80 95 % of control | dose: 12.5 mg/kg/injection, schedule: Q04DX003 (ip), vehicle: distilled water + Tween-80 95 % of control | dose: 25.0 mg/kg/injection, schedule: Q04DX003 (ip), vehicle: distilled water + Tween-80 93 % of control | dose: 50.0 mg/kg/injection, schedule: Q04DX003 (ip), vehicle: distilled water + Tween-80 92 % of control | dose: 100.0 mg/kg/injection, schedule: Q04DX003 (ip), vehicle: distilled water + Tween-80 90 % of control | dose: 200.0 mg/kg/injection, schedule: Q04DX003 (ip), vehicle: distilled water + Tween-80 90 % of control

c1cc(C[N+]23CN4CN(CN(C4)C2)C3)cs1
inactive: [2] 91 % of control

CCOC(=O)C(C(=O)OCC)=C1CCC(=O)O1
inactive: [10] 111 % of control | [11] 90 % of control

O=[N+]([O-])c1ccc(S(=O)(=O)OCc2ccccc2OS(=O)(=O)c2ccc([N+](=O)[O-])cc2)cc1
inactive: dose: 25.0 mg/kg/injection, schedule: Q04DX003 (ip), vehicle: saline with Tween-80 109 % of control | dose: 50.0 mg/kg/injection, schedule: Q04DX003 (ip), vehicle: saline with Tween-80 106 % of control | [2] 93 % of control

CCN(CC)CCCNc1ncnc(Cl)c1C(=C(C)C)c1ccccc1
inactive: dose: 100.0 mg/kg/injection, schedule: Q01DX001 (ip), vehicle: saline 97 % of control | dose: 200.0 mg/kg/injection, schedule: Q01DX001 (ip), vehicle: saline 105 % of control

O=Nc1c(O)sc2ccccc12
inactive: [7] 110 % of control | [1] 97 % of control | [8] 105 % of control | [3] 100 % of control | [9] 95 % of control | [5] 94 % of control

Cc1ccc(S(=O)(=O)/C=C(\I)c2ccc([N+](=O)[O-])cc2)cc1
inactive: dose: 50.0 mg/kg/injection, schedule: Q04DX003 (ip), vehicle: saline 96 % of control | [12] 87 % of control

COc1cc(C(=O)CC2CCCCN2)ccc1O (configuration not stated)
inactive: dose: 50.0 mg/kg/injection, schedule: Q01DX Z (ip), vehicle: saline 98 % of control | dose: 100.0 mg/kg/injection, schedule: Q01DX Z (ip), vehicle: saline 96 % of control | dose: 200.0 mg/kg/injection, schedule: Q01DX Z (ip), vehicle: saline 100 % of control

Brc1ccccc1C=C1c2ccccc2-c2ccccc21
inactive: [1] 100 % of control | [3] 102 % of control | [5] 106 % of control

CN(CCC#N)CCC#N
inactive: [12] 101 % of control | dose: 200.0 mg/kg/injection, schedule: Q04DX003 (ip), vehicle: saline 96 % of control | dose: 400.0 mg/kg/injection, schedule: Q04DX003 (ip), vehicle: saline 101 % of control
